Test results taken from patent US20240382608A1, “NOVEL LIGAND-DRUG CONJUGATE OF CAMPTOTHECIN ANALOGS, INTERMEDIATES, PHARMACEUTICAL COMPOSITION AND APPLICATION THEREOF” (SHANGHAI MICURX PHARMACEUTICAL CO., LTD., priority 2023, published 2024).
Read-outs that look alike come from different tables or passages of the source.

Assays:
[1] = test system: NCI-N87; assay: In vitro cytotoxicity test of camptothecin payloads (CellTiter-Glo); assay type: cell-based; conditions: Homo sapiens, NCI-N87, 72 h, read-out: NCI-N87 Cytotoxicity IC50 (nM)
Procedure: (§1) Human lung adenocarcinoma cell line A549, NCI-N87, and SK-BR-3 were used to evaluate the cytotoxicity of small molecule fragment of the present invention. These cells were seeded to a 96-well plate at 2000 cells per well.

[2] = test system: SK-BR-3; assay: as above; assay type: cell-based; conditions: Homo sapiens, SK-BR-3, 72 h, read-out: SK-BR-3 Cytotoxicity IC50 (nM)
Procedure: as §1

[3] = test system: A549; assay: as above; assay type: cell-based; conditions: Homo sapiens, A549, 72 h
Procedure: as §1

[4] = Rat PK study; assay type: in vivo; conditions: Sprague-Dawley (SD)
Procedure: Male SD rat, 180-200 g (BK lab. Animal Ltd.), 3 Rats/group. Blood samples were collected by orbital vein after IV administration 1 mg/kg dosage at 0.083, 0.5, 1, 2, 4, and 8 h into heparin-containing tubes, centrifugated at 10000 rpm for 3 min to get plasma. All samples were stored at −20° C. until they were sent to Suzhou Chengyao Biotech Co., Ltd. for analysis.

[5] = read-out: A549 Cytotoxicity IC50 (nM)
[6] = male, rat, in vivo, iv, 1 mg/kg

SMILES	IC50 [1] [nM]	IC50 [2] [nM]	IC50 [3, 5] [nM]	further results
CC[C@@]1(O)C(=O)OCc2c1cc1n(c2=O)Cc2c-1nc1ccc(N)c3c1c2C=CS3 [Example 1, (S)-4-amino-9-ethyl-9-hydroxy-12,15-dihydro-13H-pyrano[3′,4′:6,7]indolizino[1,2-b]thiopyrano[4,3,2-de]quinoline-10,13(9H)-dione]	5.2	38.6	10.7	MRT inf [4, 6]: 12 min; Vd [4, 6]: 0.9 L/kg; half-life [4, 6]: 18 min
CC[C@@]1(O)C(=O)OCc2c1cc1n(c2=O)Cc2c-1nc1cc(F)c(N)c3c1c2C=CS3 [Example 2, (S)-4-amino-9-ethyl-5-fluoro-9-hydroxy-12,15-dihydro-13H-pyrano[3′,4′:6,7]indolizino[1,2-b]thiopyrano[4,3,2-de]quinoline-10,13(9H)-dione]			0.8	
CC[C@@]1(O)C(=O)OCc2c1cc1n(c2=O)Cc2c-1nc1cc(F)c(C)c3c1c2[C@@H](NC(=O)CO)CC3 [drawing 111]				MRT inf ([4]; in vivo, male SD rat, IV 1 mg/kg, plasma, read-out: MRT0-∞): 30 min; half-life ([4]; in vivo, male SD rat, IV 1 mg/kg, plasma, read-out: T1/2 (converted)): 30 min; Vd ([4]; in vivo, male SD rat, IV 1 mg/kg, plasma, read-out: Vss): 20.6 L/kg
CC[C@@]1(O)C(=O)OCc2c1cc1n(c2=O)Cc2c-1nc1ccc(N)c3c1c2CCS3 [drawing 110]				IC50 ([3]; cell viability after 3 days, 2000 cells per well, read-out: A549 Cytotoxicity IC50): 22.3 nM
CC[C@@]1(O)C(=O)OCc2c1cc1n(c2=O)Cc2c-1nc1cc(F)c(C)c3c1c2[C@@H](NC(=O)CO)CC3 [drawing 109]	26	802	163	
CC[C@@]1(O)C(=O)OCc2c1cc1n(c2=O)Cc2c-1nc1ccc(N)c3c1c2CCS3 [drawing 112]				MRT inf ([4]; male SD rat, IV 1 mg/kg, plasma, read-out: MRT0-∞): 114 min; half-life ([4]; male SD rat, IV 1 mg/kg, plasma, read-out: T1/2 (converted)): 126 min; Vd ([4]; male SD rat, IV 1 mg/kg, plasma, read-out: Vss): 7.2 L/kg
CC[C@@]1(O)C(=O)OCc2c1cc1n(c2=O)Cc2c-1nc1ccc(NC(=O)CO)c3c1c2C=CS3 [Example 13]	21.7	52.3	26.4	
